Source: patent US20240041986A1, “METHODS AND COMPOSITIONS FOR THE TREATMENT AND PREVENTION OF TYPE 1 DIABETES” (Dr. Mary Morris & Associates, LLC, priority 2020, published 2024)

What was measured:
Type in all cases: in vivo, mouse
[1] = tested on: NOD mice; assay: Incidence and time to onset of Type 1 diabetes (hyperglycemia, blood glucose above 300 mg/dL) in NOD mice after sublingual treatment; details: for Median survival: control 21.00; for Median Survival (i.e., time to Type 1 diabetes onset): sublingual 87 μg Humulin, control 21 weeks
Protocol: Sublingual formulation. A commercial high dose Humulin® insulin solution (Humulin® R U-500) containing 500 units of insulin per mL is mixed with an additional equal volume (1:1 (vol:vol)) 100% glycerin. Each dose contains 10 μL of the Humulin®-glycerin solution, which contains 2.5 units (approximately 87 micrograms) of insulin in a solution having a final concentration of ˜52 vol. % glycerin.
NOD mice. Non-obese diabetic (NOD) mice, as described by Makino (Adv. Immunol. 51:285-322 (1992)), are used in the studies described herein. NOD mice provide a widely accepted animal model for the spontaneous development of Type 1 diabetes. NOD mice develop insulitis as a result of leukocyte infiltration into the pancreatic islet, which in turn leads to the destruction of pancreatic islets and a Type 1 diabetic phenotype.
Five-week old female NOD mice were randomly assigned to three groups: (1) control group (1:1 glycerin/phosphate buffered saline (PBS)); (2) insulin-related peptide treatment (Humulin®) started at six weeks of age; or (3) insulin-related peptide treatment (Humulin®) started at ten weeks of age. Mice in the treatment groups (2) and (3) were sublingually administered 2.5 units/87 μg of Humulin® R insulin (10 μL of solution) twice per day […] from age 5 weeks 5 until 8 weeks of age and then once per day, five days per week up to 30 weeks of age. Blood glucose measurements were taken once per week up to 20 weeks of age, and then twice per week thereafter. Mice were classified as diabetic after three consecutive blood glucose readings above 300 mg/dL (hyperglycemic).
Female NOD mice were randomly assigned to two groups: (1) control group (50% glycerin/phosphate buffered saline (PBS)); or (2) insulin-related peptide treatment (Humulin® in 50% glycerin solution; Humulin® sublingual immunotherapy (“Humulin SLIT”)) started at five weeks of age. Mice in the treatment group (2) were sublingually administered 87 μg of Humulin® once per day, five days per week starting at five weeks of age up to 30 weeks of age. Blood glucose measurements were taken once per week up to 13 weeks of age, and then twice per week thereafter. Mice were classified as diabetic after three consecutive blood glucose readings above 300 mg/dL (hyperglycemic). […]

[2] = tested on: C-peptide; assay: Serum C-peptide ELISA (ALPCO) in sublingually treated NOD mice; details: NOD mice fasted overnight, Humulin started at 5 weeks of age, serum at 6 and 19 weeks of age (FIG. 5)
Protocol: Serum C-peptide assay. The mouse C-peptide ELISA (ALPCO), which quantifies C-peptide protein products of mouse I and mouse II proinsulin genes, was used. Briefly, mice are fasted overnight and blood is collected by inserting a needle into the submandibular vein and collecting ˜0.2 mL of blood. The blood is centrifuged for 10 minutes at 3000×g in a refrigerated centrifuge, and serum is collected and stored −80° C. The ALPCO C-peptide ELISA is a commercially available FDA Registered For In Vitro Diagnostic Use tool for the quantification of […] C-peptide in serum and plasma samples.
Female NOD mice were randomly assigned to two groups according to Example 3. C-peptide levels in serum were determined by ALPCO C-peptide ELISA from serum samples collected at 6 and 19 weeks of age in mice that were fasted overnight.

[3] = tested on: anti-insulin antibodies; assay: Anti-insulin antibody ELISA of serum from sublingually treated NOD mice
Protocol: Autoantibody titer assay. To detect anti-insulin antibodies 96-well ELISA plates were coated with 1 μg/well of Humulin® overnight at 4° C. and were blocked with 1% BSA in PBS. Sera were divided into two equal aliquots that were incubated with or without 10 μg/ml Humulin® on ice for 1 h. The sera were then added to Humulin® coated plates for incubation overnight at 4° C. After extensive washes, the plates were incubated with HRP-conjugated goat anti-mouse IgG The assay is described in Wan et al., J Exp Med. 2016 May 30; 213(6): 967-978.
Five-week old female NOD mice were randomly assigned to two groups: (1) control group (50% PBS/glycerin); and (2) insulin-related peptide treatment (Humulin® insulin) started at six weeks of age. Mice in the treatment group (2) were sublingually administered 87 μg of Humulin® in 50% glycerin solution twice per day, five days per week, up to 30 weeks of age. Serum samples were collected from control and Humulin® SLIT treated NOD mice at 14 weeks of age and assessed for levels of anti-insulin antibody titer (i.e., after sublingual administration of Humulin® for 8 weeks) and stored at −80 C until tested for anti-insulin antibodies in the ELISA described above. The level of anti-insulin antibodies in the samples was determined by ELISA using the assay described in Wan et al., J Exp Med. 2016 May 30; 213(6): 967-978 and the results are shown in FIG. 2. […]

[4] = Humulin started at 5 weeks of age (FIG. 3)
[5] = Humulin started at 5 weeks of age vs control (FIG. 3)
[6] = Humulin started at 6 weeks of age (FIG. 1A)
[7] = Humulin started at 6 weeks of age vs control (FIG. 1A)
[8] = Humulin started at 10 weeks of age (FIG. 1B)
[9] = Humulin started at 10 weeks of age vs control (FIG. 1B)
[10] = combined FIG. 1A and FIG. 3 (FIG. 6)
[11] = combined FIG. 1A and FIG. 3 vs control (FIG. 6)

What does the source list for “Humulin: commercial recombinant human insulin solution (Humulin® R U-500) mixed 1:1 with glycerin, sublingual formulation, 87 μg per 10 μL dose”?
Ratio of median survival (Control / Humulin) [1, 4]: 0.7119; Reciprocal of ratio of median survival [1, 4]: 1.405; Are the survival curves sig different? Gehan-Breslow-Wilcoxon test [1, 5]: Yes; Are the survival curves sig different? Log-rank (Mantel-Cox) test [1, 5]: Yes; Ratio of median survival (Control / Humulin) [1, 6]: 0.778; Reciprocal of ratio of median survival [1, 6]: 1.29; Are the survival curves significantly different? Gehan-Breslow-Wilcoxon test [1, 7]: Yes; Are the survival curves significantly different? Log-rank (Mantel-Cox) test [1, 7]: Yes; Ratio of median survival (Control / Humulin) [1, 8]: 0.8750; Reciprocal of ratio of median survival [1, 8]: 1.14; Are the survival curves significantly different? Gehan-Breslow-Wilcoxon test [1, 9]: No; Are the survival curves significantly different? Log-rank (Mantel-Cox) test [1, 9]: No; incidence (% diabetic) and onset time (weeks) of Type 1 diabetes as compared to the control group ([1]; NOD mice, sublingual Humulin started at five weeks of age (FIG. 3)): reduced; incidence (% T1D Onset) and onset time (weeks) of Type 1 diabetes as compared to the control group ([1]; NOD mice, sublingual Humulin started at six weeks of age (FIG. 1A)): significantly reduced; Ratio of median survival (Control / Humulin) [1, 10]: 0.8077; Reciprocal of ratio of median survival [1, 10]: 1.238; Are the survival curves sig different? Gehan-Breslow-Wilcoxon test [1, 11]: Yes; Are the survival curves sig different? Log-rank (Mantel-Cox) test [1, 11]: Yes; Median survival ([1]; combined results of FIG. 1A and FIG. 3, Humulin started at 5 or 6 weeks of age (FIG. 6, time in Weeks)): 26.00; Median survival ([1]; female NOD mice, sublingual 87 μg Humulin once per day, five days per week, started at 5 weeks of age (FIG. 3, time in Weeks)): 29.50; Median Survival (i.e., time to Type 1 diabetes onset) ([1]; female NOD mice, started at 6 weeks of age (FIG. 1A)): 27 weeks; Median Survival (i.e., time to Type 1 diabetes onset) ([1]; female NOD mice, started at 10 weeks of age (FIG. 1B)): 24 weeks; serum C-peptide levels as compared to untreated control NOD mice [2]: either a maintenance or enhancement; development of anti-insulin antibodies as compared to the control group ([3]; 87 μg Humulin started at five weeks of age, serum at 19 weeks of age (FIG. 4)): significantly reduced; development of anti-insulin antibodies as compared to the control group ([3]; 87 μg Humulin started at six weeks of age, serum at 14 weeks of age (FIG. 2)): significantly reduced
